Results on four molecules are retold here after patent publication US20260263506A1, “CORNEAL DISORDER TREATMENT AGENT” (M'S SCIENCE CORPORATION, priority 2022, published 2026).

Assay [1] concerns HCE-T (immortalized human corneal epithelial) cells. Put plainly: HCE-T cell migration assay, cell migration area from fluorescence microscopic images (BZ-X analyzer). The following applies: for Relative cell migration area (%): no-addition control = 100%. Format: cell-based. How it is done: (§1) HCE-T (immortalized human corneal epithelial) cells [isolated and established from human corneal epithelia; obtained from RIKEN Cell Bank] were cultured in DMEM/F12 medium supplemented with 5% fetal bovine serum in a CO2 incubator at 37° C.
(§2) HCE-T cells grown to 60%-80% confluency in a T75 flask were detached with trypsin-EDTA and collected. The collected cells were suspended in fresh DMEM/F12 medium supplemented with fetal bovine serum.
(§3) From this cell suspension, 60,000 cells per well were seeded in a 96-well multiwell-plate, in which each well was fitted with a cell seeding stopper.
(§4) After the plate was incubated overnight at 37° C. in a CO 2 incubator, the cell stoppers were removed, and the cells were washed twice with a serum-free medium. Then, the medium was replaced by a serum-free medium supplemented with the test substance or a control serum-free medium devoid of the test substance, and the cells were cultured for 28 hours.
(§5) The serum-free medium with the test substance used was a medium containing fondaparinux sodium [obtained from Selleck] at a concentration of 0.1% (w/v) or 0.3% (w/v) or a medium containing 0.5% (w/v) sodium chondroitin sulfate (obtained from Tokyo Chemical Industry; average molecular weight, ~30,000).
(§6) The cultured cells were stained with Calcein-AM (obtained from nacalai tesque), and the fluorescence emitted from HCE-T cells that migrated to the zone where the stopper was placed was measured. After the fluorescence intensity was measured, fluorescence microscopic images were acquired and analyzed using a BZ-X analyzer to measure cell migration areas.
The cell migration areas were calculated (measured) through analysis of images acquired with a fluorescence microscope and were used to calculate areas relative to the no-addition control group (relative migration areas).
A relative migration area value is a relative cell migration area for each test substance group expressed in percentage in reference to the cell migration area of the no-addition control group as 100%.
(§7) As in Experiment 1, HCE-T (immortalized human corneal epithelial) cells were used to investigate the effects of test substances on the migration of HCE-T cells. The test substances used were fondaparinux sodium, high-molecular-weight sodium hyaluronate (average molecular weight 887,000), sodium heparan sulfate (average molecular weight 23,000), and low molecular weight heparin (average molecular weight 5,400). Among these test substances, fondaparinux sodium was obtained from Selleck as described above, and all other glycosaminoglycans were obtained from Iwai Chemicals Company. The concentration of each test substance was 0.3% (w/v).

For assay [2] the test system is unchanged. Description: HCE-T cell migration assay, Calcein-AM fluorescence of cells migrated into the stopper zone. It is filed as cell-based. The following applies: for Relative fluorescence intensity (%): no-addition control = 100%; for Effect on migration of human corneal epithelial cells (in words): summary statement from both analysis methods. How it is done:
as §1, §2, §3, §4, §5, §6
A relative fluorescence intensity value is a fluorescence intensity measurement for each test substance group expressed in percentage in reference to the fluorescence intensity of the no-addition group (control) as 100%, indicating the relative level of cell migration compared to the control.
as §7

Setting [3] is: Experiment 1, 0.5% (w/v), serum-free medium, 28 hours, mean and standard error of 3 measurements.
Where [4] appears, read: Experiment 2, 0.3% (w/v), mean and standard error of 4 measurements.
The mark [5] stands for this setting: Experiment 2, 0.3% (w/v), as in Experiment 1.
[6] abbreviates: Experiment 1, 0.1% (w/v), serum-free medium, 28 hours, mean and standard error of 3 measurements.
The mark [7] stands for this setting: Experiment 1, 0.3% (w/v), serum-free medium, 28 hours, mean and standard error of 3 measurements.

Marks after values point to notes of the source that are not given here.

As for Sodium chondroitin sulfate, the “Relative cell migration area (%)” value in assay [1] (Experiment 1, 0.5% (w/v), n=3) is recorded as 103.9 ± 18.0%. Also, the “Cell migration area (10^4 μm^2)” value in assay [1] (setting [3]) is listed as 66.1 ± 1.1 10^4 μm^2. Also, the “Relative fluorescence intensity (%)” value in assay [2] (Experiment 1, 0.5% (w/v), 28 hours, n=3) is 89.20 ± 23.97%. In addition, the Fluorescence intensity in assay [2] (setting [3]) is 0.112 ± 0.030.
On to “High-molecular-weight sodium hyaluronate”, for which, in assay [1] (setting [4]), the “Cell migration area (10^4 μm^2)” value is given as 50.9 ± 17.4 10^4 μm^2. Moreover, the “Relative cell migration area (%)” value in assay [1] (Experiment 2, 0.3% (w/v), n=4) was found to be 130.9 ± 4.5%. Further, in assay [2] (setting [5]), the Fluorescence intensity is reported as 0.176 ± 0.028. In addition, the “Relative fluorescence intensity (%)” value in assay [2] (Experiment 2, 0.3% (w/v)) is listed as 143.67 ± 22.72%.
As to `CO[C@H]1OC(COS(=O)(=O)[O-])[C@@H](O[C@@H]2OC(C(=O)[O-])[C@@H](O[C@H]3OC(COS(=O)(=O)[O-])[C@@H](O[C@@H]4OC(C(=O)[O-])[C@@H](O[C@H]5OC(COS(=O)(=O)[O-])[C@@H](O)C(O)C5NS(=O)(=O)[O-])C(O)C4O)C(OS(=O)(=O)[O-])C3NS(=O)(=O)[O-])C(O)C2OS(=O)(=O)[O-])C(O)C1NS(=O)(=O)[O-].[Na+].[Na+].[Na+].[Na+].[Na+].[Na+].[Na+].[Na+].[Na+].[Na+]` (stereo partly drawn) [Fondaparinux sodium, methyl O-(2-deoxy-6-O-sulfo-2-sulfoamino-α-D-glucopyranosyl)-(1→4)-O-(β-D-glucopyranosyluronic acid)-(1→4)-O-(2-deoxy-3,6-di-O-sulfo-2-sulfoamino-α-D-glucopyranosyl)-(1→4)-O-(2-O-sulfo-α-L-idopyranosyluronic acid)-(1→4)-2-deoxy-6-O-sulfo-2-sulfoamino-α-D-glucopyranoside sodium salt], the “Relative cell migration area (%)” value is listed as 160.5 ± 6.6% in assay [1] (Experiment 1, 0.1% (w/v), n=3); 168.4 ± 5.1 % in assay [1] (Experiment 1, 0.3% (w/v), n=3); 169.4 ± 16.4% in assay [1] (Experiment 2, 0.3% (w/v), n=4). Moreover, the “Cell migration area (10^4 μm^2)” value is on record as 102.1 ± 4.2 10^4 μm^2 in assay [1] (setting [6]), 107.1 ± 3.2* 10^4 μm^2 in assay [1] (setting [7]) and 65.9 ± 6.4 10^4 μm^2 in assay [1] (setting [4]). The “Relative fluorescence intensity (%)” value in assay [2] (Experiment 1, 0.1% (w/v), 28 hours, n=3) is recorded as 145.41 ± 10.19%; in assay [2] (Experiment 1, 0.3% (w/v), 28 hours, n=3) it was 170.1 ± 2.84 %; in assay [2] (Experiment 2, 0.3% (w/v)), 237.36 ± 22.53 %. Further, the Fluorescence intensity in assay [2] (setting [6]) is recorded as 0.183 ± 0.013; in assay [2] (setting [7]), 0.215 ± 0.004; in assay [2] (setting [5]) it was 0.290 ± 0.028. Moreover, the “Effect on migration of human corneal epithelial cells (in words)” value in assay [2] (listed as fondaparinux sodium, sodium salt) was “promoted migration and stretching of human corneal epithelial cells”; in assay [2] (listed as fondaparinux, sodium salt), “strong stimulatory effect”.
For the molecule Low molecular weight heparin, the “Cell migration area (10^4 μm^2)” value in assay [1] (setting [4]) was 78.4 ± 12.3* 10^4 μm^2. The “Relative cell migration area (%)” value in assay [1] (Experiment 2, 0.3% (w/v), n=4) is given as 201.6 ± 31.6 %. In assay [2] (setting [5]), the Fluorescence intensity is recorded as 0.359 ± 0.083. Further, the “Relative fluorescence intensity (%)” value in assay [2] (Experiment 2, 0.3% (w/v)) is 293.94 ± 68.25%. In addition, in assay [2], the “Effect on migration of human corneal epithelial cells (in words)” value is reported as “strong stimulatory effect”.
